The test has as its system P. falciparum K1. In words: Plasmodium falciparum in vitro assay ([3H] hypoxanthine incorporation). It is filed as cell-based. Particulars: erythrocytic stages, strain K1 resistant to chloroquine and pyrimethamine, human red cells, read-out: IC50 (nM) on K1. Here is the method:
In vitro antimalarial activity: Plasmodium falciparum in vitro assay In vitro activity against erythrocytic stages of P. falciparum is determined using a [^3H] hypoxanthine incorporation assay. One strain resistant to chloroquine and pyrimethamine (P. falciparum K1) is used in the assays, and all test compounds are compared for activity with the standard drugs chloroquine (sigma C6628) and artemisinin (sigma-36, 159-3). Compounds are diluted in DMSO to 1 mM and added to parasite cultures incubated in RPMI 1640 medium without hypoxanthine, supplemented with HEPES (5.94 g/L), NaHCO3 (2.1 g/L), neomycin (100 U/mL), Albumax (5 g/L) and washed human red cells at 2.5% hematocrit (0.3% parasitaemia). Seven serial doubling dilutions of each drug are prepared in 96-well microtitre plates and incubated in a humidifying atmosphere at 37° C.; 4% CO2, 3% O2, 93% N2.
After 48 h, 50 μl of [^3H] hypoxanthine (0.5 μCi) is added to each well of a plate. The plates are incubated for a further 24 h under the same conditions. The plates are then harvested with a Betaplate cell harvester (Wallac) and washed with distilled water. The dried filters are inserted into a plastic foil with 10 mL of scintillation fluid, and counted in a Betaplate liquid scintillation counter. IC50 values are calculated from sigmoidal inhibition curves using Microsoft Excel.

Where two headings read alike, the source gives them in different places.

The IC50 is the concentration needed to halve the response being measured.

Consider `O=C([C@H](Cc1ccccc1)N(Cc1ccc(-c2ccccn2)cc1)C(=O)/C=C/c1ccc(C(F)(F)F)cc1)N1CCc2ccccc2C1` [Example 1, (S)—N-[1-Benzyl-2-(3,4-dihydro-1H-isoquinolin-2-yl)-2-oxo-ethyl]-N-(4-pyridin-2-yl-benzyl)-3-(trifluoromethyl-phenyl)-acrylamide], for which the 50% inhibitory concentration (IC50) (Plasmodium falciparum) was found to be 3.5 nM. `COc1cc(C=CC(=O)N(Cc2ccc(-c3ccccn3)cc2)[C@@H](Cc2ccccc2)C(=O)N2CCc3ccccc3C2)cc(OC)c1` [Example 14, (S)—N-[1-Benzyl-2-(3,4-dihydro-1-H-isoquinolin-2-yl)-2-oxo-ethyl]-3-(3,5-dimethoxy-phenyl)-N-(4-pyridin-2-yl-benzyl)-acrylamide]: the IC50 was determined as 18 nM. Regarding `Cc1noc(C)c1C=CC(=O)N(Cc1ccc(N2CCOCC2)cc1)[C@@H](Cc1ccccc1)C(=O)N1CCc2ccccc2C1` [Example 224, (S)—N-[1-Benzyl-2-(3,4-dihydro-1H-isoquinolin-2-yl)-2-oxo-ethyl]-3-(3,5-dimethyl-isoxazol-4-yl)-N-(4-morpholin-4-yl-benzyl)-acrylamide], the IC50 (Plasmodium falciparum) came out at 18 nM.

As for `Cc1nc(C=CC(=O)N(Cc2ccc(-c3cncnc3)cc2)[C@@H](Cc2ccccc2)C(=O)N2CCc3ccccc3C2)c(C)o1` [Example 253, (S)—N-[1-Benzyl-2-(3,4-dihydro-1H-isoquinolin-2-yl)-2-oxo-ethyl]-3-(2,5-dimethyl-oxazol-4-yl)-N-(4-pyrimidin-5-yl-benzyl)-acrylamide], under “Plasmodium falciparum”, the IC50 turned out to be 70 nM. On the same count and under the same terms, with `O=C([C@H](Cc1ccccc1)N(Cc1ccc(-c2ccccn2)cc1)C(=O)C=Cc1ccc(C(F)(F)F)nc1)N1CCc2cc(F)ccc2C1` [Example 78, (S)—N-[1-Benzyl-2-(6-fluoro-3,4-dihydro-1H-isoquinolin-2-yl)-2-oxo-ethyl]-N-(4-pyridin-2-yl-benzyl)-3-(6-trifluoromethyl-pyridin-3-yl)-acrylamide] the figure was 52 nM; with `Cc1ccc(C=CC(=O)N(Cc2ccc(-c3ccccn3)cc2)[C@@H](Cc2ccccc2)C(=O)N2CCc3ccccc3C2)cn1` [Example 59, (S)—N-[1-Benzyl-2-(3,4-dihydro-1H-isoquinolin-2-yl)-2-oxo-ethyl]-3-(6-methyl-pyridin-3-yl)-N-(4-pyridin-2-yl-benzyl)-acrylamide], 14 nM. Turning to `O=C([C@H](Cc1ccccc1)N(Cc1ccc(-c2ccccn2)cc1)C(=O)C=Cc1cccc(Cl)c1Cl)N1CCc2ccccc2C1` [Example 25, (S)—N-[1-Benzyl-2-(3,4-dihydro-1-H-isoquinolin-2-yl)-2-oxo-ethyl]-3-(2,3-dichloro-phenyl)-N-(4-pyridin-2-yl-benzyl)-acrylamide], the IC50 is 13 nM. `Cc1ccc(C=CC(=O)N(Cc2ccc(N3CCOCC3)cc2)[C@@H](Cc2ccccc2)C(=O)N2CCc3ccccc3C2)cn1` [Example 218, (S)—N-[1-Benzyl-2-(3,4-dihydro-1H-isoquinolin-2-yl)-2-oxo-ethyl]-3-(6-methyl-pyridin-3-yl)-N-(4-morpholin-4-yl-benzyl)-acrylamide]: under “Plasmodium falciparum”, the half-inhibitory concentration (IC50) is 31 nM. Consider `Cn1cc(C=CC(=O)N(Cc2ccc(-n3cncn3)cc2)[C@@H](Cc2ccccc2)C(=O)N2CCc3ccccc3C2)cn1` [Example 172, (S)—N-[1-Benzyl-2-(3,4-dihydro-1H-isoquinolin-2-yl)-2-oxo-ethyl]-3-(1-methyl-1H-pyrazol-4-yl)-N-(4-[1,2,4]-triazol-1-yl-benzyl)-acrylamide], for which, under “Plasmodium falciparum”, the IC50 is 25 nM. For `O=C([C@H](Cc1ccccc1)N(Cc1ccc(-c2cc[n+]([O-])cc2)cc1)C(=O)C=Cc1ccc(C(F)(F)F)cc1)N1CCc2ccccc2C1` [Example 254, (S)—N-[1-Benzyl-2-(3,4-dihydro-1-H-isoquinolin-2-yl)-2-oxo-ethyl]-N-[4-(1-oxy-pyridin-4-yl)-benzyl]-3-(4-trifluoromethyl-phenyl)-acrylamide], the IC50 was < 7.8 nM. On to `COc1ccc(C=CC(=O)N(Cc2ccc(N3CCOCC3)cc2)[C@@H](Cc2ccccc2)C(=O)N2CCc3ccccc3C2)cn1` [Example 220, (S)—N-[1-Benzyl-2-(3,4-dihydro-1H-isoquinolin-2-yl)-2-oxo-ethyl]-3-(6-methoxy-pyridin-3-yl)-N-(4-morpholin-4-yl-benzyl)-acrylamide], for which the IC50 (Plasmodium falciparum) came out at 10 nM.

On to `O=C([C@H](Cc1ccccc1)N(Cc1ccc(-c2cnccn2)cc1)C(=O)C=Cc1ccc(Cl)nc1)N1CCc2ccccc2C1` [Example 111, (S)—N-[1-Benzyl-2-(3,4-dihydro-1H-isoquinolin-2-yl)-2-oxo-ethyl]-3-(6-chloro-pyridin-3-yl)-N-(4-pyrazin-2-yl-benzyl)-acrylamide], for which, under “Plasmodium falciparum”, the IC50 stood at 35 nM. Still for that read-out and setting: with `Cc1nc(C)c(C=CC(=O)N(Cc2ccc(-c3ccncc3)cc2)[C@@H](Cc2ccccc2)C(=O)N2CCc3ccccc3C2)s1` [Example 247, (S)—N-[1-Benzyl-2-(3,4-dihydro-1H-isoquinolin-2-yl)-2-oxo-ethyl]-3-(2,4-dimethyl-thiazol-5-yl)-N-(4-pyridin-4-yl-benzyl)-acrylamide] the figure was 4 nM; with `O=C([C@H](Cc1ccccc1)N(Cc1ccc(-c2ccccn2)cc1)C(=O)C=Cc1ccc(C(F)(F)F)cc1)N1CCc2cc(F)ccc2C1` [Example 10, (S)—N-[1-Benzyl-2-(6-fluoro-3,4-dihydro-1H-isoquinolin-2-yl)-2-oxo-ethyl]-N-(4-pyridin-2-yl-benzyl)-3-(4-trifluoromethyl-phenyl)-acrylamide], 14 nM.

Take `O=C(C(Cc1ccon1)N(Cc1ccc(-c2ccncc2)cc1)C(=O)C=Cc1ccc(C(F)(F)F)cc1)N1CCc2ccccc2C1` (racemic) [Example 87, rac-N-[2-(3,4-Dihydro-1H-isoquinolin-2-yl)-1-isoxazol-3-ylmethyl-2-oxo-ethyl]-N-(4-pyridin-4-yl-benzyl)-3-(4-trifluoromethyl-phenyl)-acrylamide]: under “Plasmodium falciparum”, the IC50 was found to be 194 nM. Same read-out and setting: with `Cc1nn(C)c(C)c1C=CC(=O)N(Cc1ccc(-c2cnccn2)cc1)[C@@H](Cc1ccccc1)C(=O)N1CCc2ccccc2C1` [Example 119, (S)—N-[1-Benzyl-2-(3,4-dihydro-1H-isoquinolin-2-yl)-2-oxo-ethyl]-N-(4-pyrazin-2-yl-benzyl)-3-(1,3,5-trimethyl-1H-pyrazol-4-yl)-acrylamide] the figure was 5 nM. Consider `CN(C)c1ccc(C=CC(=O)N(Cc2ccc(-c3ccccn3)cc2)[C@@H](Cc2ccccc2)C(=O)N2CCc3ccccc3C2)cc1` [Example 38, (S)—N-[1-Benzyl-2-(3,4-dihydro-1-H-isoquinolin-2-yl)-2-oxo-ethyl]-3-(4-dimethylamino-phenyl)-N-(4-pyridin-2-yl-benzyl)-acrylamide], for which the IC50 worked out at 10 nM. Take `Cc1c(C=CC(=O)N(Cc2ccc(-c3ccccn3)cc2)[C@@H](Cc2ccccc2)C(=O)N2CCc3ccccc3C2)cnn1C` [Example 65, (S)—N-[1-Benzyl-2-(3,4-dihydro-1H-isoquinolin-2-yl)-2-oxo-ethyl]-3-(1,5-dimethyl-1H-pyrazol-4-yl)-N-(4-pyridin-2-yl-benzyl)-acrylamide]: the IC50 (Plasmodium falciparum) came to 10 nM. In the case of `O=C(C(Cc1ncccn1)N(Cc1ccc(-c2ccncc2)cc1)C(=O)C=Cc1ccc(C(F)(F)F)cc1)N1CCc2ccccc2C1` (racemic) [Example 86, rac-N-[2-(3,4-Dihydro-1H-isoquinolin-2-yl)-2-oxo-1-pyrimidin-2-ylmethyl-ethyl]-N-(4-pyridin-4-yl-benzyl)-3-(4-trifluoromethyl-phenyl)-acrylamide], the IC50 (Plasmodium falciparum) came to 162 nM. On the same count and under the same terms, with `CN1CCN(c2ccc(CN(C(=O)C=Cc3ccc(C(F)(F)F)cn3)[C@@H](Cc3ccccc3)C(=O)N3CCc4ccccc4C3)cc2)CC1` [Example 211, (S)—N-[1-Benzyl-2-(3,4-dihydro-1H-isoquinolin-2-yl)-2-oxo-ethyl]-N-[4-(4-methyl-piperazin-1-yl)-benzyl]-3-(5-trifluoromethyl-pyridin-2-yl)-acrylamide] the figure was 82 nM; with `COc1ccc(C=CC(=O)N(Cc2ccc(-c3ccccn3)cc2)[C@@H](Cc2ccccc2)C(=O)N2CCc3ccccc3C2)cn1` [Example 62, (S)—N-[1-Benzyl-2-(3,4-dihydro-1H-isoquinolin-2-yl)-2-oxo-ethyl]-3-(6-methoxy-pyridin-3-yl)-N-(4-pyridin-2-yl-benzyl)-acrylamide], 10 nM. Turning to `Cc1nc(C)c(C=CC(=O)N(Cc2ccc(-c3ccccn3)cc2)[C@@H](Cc2ccccc2)C(=O)N2CCc3ccccc3C2)s1` [Example 51, (S)—N-[1-Benzyl-2-(3,4-dihydro-1H-isoquinolin-2-yl)-2-oxo-ethyl]-3-(2,4-dimethyl-thiazol-5-yl)-N-(4-pyridin-2-yl-benzyl)-acrylamide], the half-inhibitory concentration (IC50) (Plasmodium falciparum) was 17 nM. Regarding `Cc1noc(C)c1C=CC(=O)N(Cc1ccc(-c2ccncc2)cc1)[C@@H](Cc1ccccc1)C(=O)N1CCc2ccccc2C1` [Example 241, (S)—N-[1-Benzyl-2-(3,4-dihydro-1H-isoquinolin-2-yl)-2-oxo-ethyl]-3-(3,5-dimethyl-isoxazol-4-yl)-N-(4-pyridin-4-yl-benzyl)-acrylamide], under “Plasmodium falciparum”, the IC50 turned out to be 5 nM. Same read-out and setting: then `Cc1ncc(C=CC(=O)N(Cc2ccc(-c3ccncc3)cc2)[C@@H](Cc2ccccc2)C(=O)N2CCc3ccccc3C2)n1C` [Example 246, (S)—N-[1-Benzyl-2-(3,4-dihydro-1H-isoquinolin-2-yl)-2-oxo-ethyl]-3-(2,3-dimethyl-3H-imidazol-4-yl)-N-(4-pyridin-4-yl-benzyl)-acrylamide], with 17 nM.

Source of the values: patent US20110281869A1, “TETRAHYDROISOQUINOLINES AS ANTIMALARIAL AGENTS” (priority 2008, published 2011).
